# Test results: patent publication US20030007998A1, “Unsaturated lipid-enriched feedstock for ruminants” (priority 2001, published 2003)
# Legend:
# rumen fluid = conditions: in vitro, J. Dairy Sci., 78, 2797 (1995); cited from earlier work
# Holstein cows [1] = experiment: Dairy cattle feeding trial, dietary monensin in MEGALAC diet; type: in vivo
# Experimental: (§1) Eight Holstein cows are selected and equipped with rumen and duodenal cannulae. All cows are housed in individual tie stalls and are commencing the trial at 45 days in lactation.
# (§2) The eight cows are employed in two four-by-four Latin Square designs. Each square has four cows with four treatments imposed. The four treatments are 0, 10, 40 and 70 mg/kg DM of dietary monensin. Each square has a different source of dietary fatty acids. In the first square, dietary fat is supplied by linseed oil, which has a high proportion of fatty acid linolenate. The second square has the dietary fat supplied by MEGALAC, which is a calcium salt of palm oil fatty acids having a high proportion of fatty acid oleate.
# (§3) Cows are fed identical diets in both squares except for source of fatty acids, and are formulated for high production. Nutrient composition is formulated for all diets at 17% crude protein with 65% as rumen undegradable protein, 26% Neutral Detergent Fiber, 1.7 Mcal/kg net energy. All diets contain 4% added fat on a dry matter basis from MEGALAC or linseed oil. A daily dry matter intake of 25 kg/cow is calculated to deliver approximately 1 kg of linseed oil or MEGALAC per cow per day. Remaining dietary ingredients are low in fat, and include alfalfa haylage, corn silage, corn, barley, soybean meal, blood meal, Smartamine-M (rumen bypass methionine), sodium bicarbonate and vitamin-mineral premix. All diets are offered as Total Mixed Rations twice daily in quantities to assure at least 10% refusal per day of the amount offered.
# (§4) Cows are fed their assigned diets for two weeks, with week one as an adaptation and week two as the experimental feeding period. Sampling is on the last 3 days of this second week. All cows are then moved onto a different diet in such a manner that by the end of the trial all cows have received all diets within each Latin Square.
# (§5) During the second week of each period daily, dry matter intake and milk production are recorded. Total mixed rations are sampled daily and composited weekly. These are analyzed for crude protein, NDF and total fat. During the last 3 days of the second week individual proportional milk samples are taken and separated into two subsamples. One subsample is used to assay for total fat content and true protein, and the second is frozen for subsequent analysis of fatty acid profile in the milk.
# (§6) During the last 3 days of the second week, rate of passage from the rumen is estimated using dye marker techniques. The liquid and solids markers are placed into the rumen daily beginning on day 7 of the adaptation period, with duodonal samples taken on the last 3 days of the experimental period. Duodenal samples are stored frozen for later analysis of total fat, fatty acid profile and marker. Concurrent rumen samples are taken. Liquid turnover rate is estimated from the dilution of dye in the liquid portion of rumen samples. Rumen contents are assayed for total fat, fatty acid profile and marker. Each Latin square is analyzed separately.
# Hereford steers [2] = experiment: Beef cattle feeding trial, dietary monensin in linseed oil diet; type: in vivo
# Experimental: (§7) Eight Hereford steers are selected and equipped with rumen and duodenal cannulae. All steers are housed in individual tie stalls. The duration of the trial is the last 90 days of the finishing period.
# as §2, with “steers” for “cows”, “used” for “employed”, “mg” for “mg/kg DM”
# (§8) Steers are fed identical diets in both squares except for source of fatty acids, and the diets are formulated for high rate of body weight gain (1 kg/day). All diets are calculated to deliver 0.75 kg/steer/day of added dietary linseed oil or MEGALAC. Remaining dietary ingredients are low in fat, and include corn silage, corn, barley, soybean meal, bloodmeal, Smartamine-M (rumen bypass methionine), sodium bicarbonate and vitamin-mineral premix. All diets are offered as Total Mixed Rations twice daily in quantities to assure at least 10% refusal per day of the amount offered.
# as §4, with “Steers” for “Cows”, “steers” for “cows”
# (§9) During the second week of each period daily dry matter intakes are recorded. Total mixed rations are sampled daily and composited weekly. These are analyzed for crude protein, NDF and total fat. During the last 3 days of the second week individual body weights are recorded.
# as §6, with “week” for “week,”, “duodenal” for “duodonal”
# Hereford steers [3] = experiment: Beef cattle feeding trial, dietary monensin in MEGALAC diet; type: in vivo
# Experimental: as §7
# as §2, with “steers” for “cows”, “used” for “employed”, “mg” for “mg/kg DM”
# as §8
# as §4, with “Steers” for “Cows”, “steers” for “cows”
# as §9
# as §6, with “week” for “week,”, “duodenal” for “duodonal”
# Holstein cows [4] = experiment: Dairy cattle feeding trial, dietary monensin in linseed oil diets; type: in vivo
# Experimental: as §1, §2, §3, §4, §5, §6
# [5] = 40 mg monensin, P<0.05, MEGALAC diet
# [6] = 70 mg monensin, P<0.05, MEGALAC diet
# [7] = 10 and 40 mg monensin, P<0.05, steers
# [8] = 40 mg monensin, P<0.05, linseed oil diet
# [9] = 70 mg monensin, P<0.05, linseed oil diet
structure (smiles),measurement,setting,value
CC1(C)S[C@@H]2[C@H](NC(=O)[C@H](N)c3ccc(O)cc3)C(=O)N2[C@H]1C(=O)O [amoxicillin],Antimicrobial inhibition of lipolysis and lipid biohydrogenation of soybean oil,rumen fluid,most potent inhibitors
CC[C@@]1([C@@H]2O[C@@H]([C@H]3O[C@@](O)(CO)[C@H](C)C[C@@H]3C)C[C@@H]2C)CC[C@H]([C@]2(C)CC[C@]3(C[C@H](O)[C@@H](C)[C@@H]([C@@H](C)[C@@H](OC)[C@H](C)C(=O)O)O3)O2)O1 [monensin],DMI,"Holstein cows [1]; 0 to 70 mg monensin addition, MEGALAC diet, dairy cows",no effect
same,Milk oleate increase vs. 0 mg supplementation,"Holstein cows [1]; 10 mg monensin, P<0.05, MEGALAC diet",22%
same,Rumen rate of passage,"Holstein cows [1]; 10 mg monensin, P<0.1, MEGALAC diet",tends to increase
same,Milk production improvement,"Holstein cows [1]; 10 mg monensin, tends (P<0.1), MEGALAC diet",2.8 lbs. per day
same,Milk oleate increase vs. 0 mg supplementation,Holstein cows [1]; [5],31%
same,Milk production improvement,Holstein cows [1]; [5],3.9 lb/day
same,Milk production,"Holstein cows [1]; 70 mg monensin vs 40 mg, MEGALAC diet",no further improvement
same,Bypass linolenic acid,"Holstein cows [1]; 70 mg monensin, MEGALAC diet",about 33%
same,Milk fat percentage reduction,Holstein cows [1]; [6],0.25 percentage points
same,Milk oleate increase vs. 0 mg supplementation,Holstein cows [1]; [6],39%
same,Rumen liquid turnover rate increase,"Holstein cows [1]; 70 mg monensin, P<0.1, MEGALAC diet",6%
same,Estimated rumen bypass rate for oleic acid,"Holstein cows [1]; 10 and 40 mg monensin, MEGALAC diet (0 mg: 56%)",74%
same,Increase of oleic acid in duodenal contents,"Holstein cows [1]; 10 and 40 mg monensin, P<0.05, MEGALAC diet",18 percentage points
same,Rumen rate of passage increase,"Holstein cows [1]; 40 and 70 mg monensin, MEGALAC diet",6.4%
same,Rumen liquid turnover rate,"Holstein cows [1]; between 0, 10 and 40 mg monensin, MEGALAC diet",not different
same,Milk protein percentages,"Holstein cows [1]; diets with different concentrations of monensin, MEGALAC diet",not different
same,Milk fat percentage,"Holstein cows [1]; lower inclusion rates of monensin, MEGALAC diet",only a tendency for a reduction
same,Rumen rate of passage,"Hereford steers [2]; 10 mg monensin, P<0.1, steers",tends to increase
same,DMI,"Hereford steers [2]; 10 mg monensin, steers",no significant effect
same,Rumen liquid turnover rate increase,"Hereford steers [2]; 70 mg monensin, P<0.1, steers",5%
same,Bypass linolenic acid,"Hereford steers [2]; 70 mg monensin, steers",about 29%
same,Increase of linolenic acid in duodenal contents,Hereford steers [2]; [7],24 percentage points
same,Rumen bypass rate for linolenic acid,"Hereford steers [2]; 10 and 40 mg monensin, steers (0 mg: about 10%)",34%
same,DMI reduction,"Hereford steers [2]; 40 and 70 mg monensin diets, steers",5%
same,Rumen rate of passage increase,"Hereford steers [2]; 40 and 70 mg monensin, steers",6%
same,Rumen liquid turnover rate,"Hereford steers [2]; between 0, 40 and 70 mg monensin, steers",not different
same,DMI,"Hereford steers [3]; 10 mg monensin addition, steers",no effect
same,Rumen rate of passage,"Hereford steers [3]; 10 mg monensin, P<0.1, steers",tends to increase
same,Rumen liquid turnover rate increase,"Hereford steers [3]; 70 mg monensin, P<0.1, steers",4%
same,Bypass linolenic acid,"Hereford steers [3]; 70 mg monensin, steers",about 39%
same,Increase of oleic acid in duodenal contents,Hereford steers [3]; [7],22 percentage points
same,Estimated rumen bypass rate for oleic acid,"Hereford steers [3]; 10 and 40 mg monensin, steers (0 mg: 66%)",88%
same,DMI reduction compared to controls,"Hereford steers [3]; 40 and 70 mg monensin, steers",8%
same,Rumen rate of passage increase,"Hereford steers [3]; 40 and 70 mg monensin, steers",5.4%
same,Rumen liquid turnover rate,"Hereford steers [3]; between 0, 10 and 40 mg monensin, steers",not different
same,DMI,"Holstein cows [4]; 0 to 70 mg monensin addition, linseed oil diet, dairy cows",no effect
same,Milk linolenate increase vs. 0 mg supplementation,"Holstein cows [4]; 10 mg monensin, P<0.05, linseed oil diet",25%
same,Rumen rate of passage,"Holstein cows [4]; 10 mg monensin, P<0.1, linseed oil diet",tends to increase
same,Milk production improvement,"Holstein cows [4]; 10 mg monensin, tends (P<0.1), linseed oil diet",3 lbs. per day
same,Milk linolenate increase vs. 0 mg supplementation,Holstein cows [4]; [8],28%
same,Milk production improvement,Holstein cows [4]; [8],3.5 lb/day
same,Milk production,"Holstein cows [4]; 70 mg monensin vs 40 mg, linseed oil diet",no further improvement
same,Milk fat percentage reduction,Holstein cows [4]; [9],0.3 percentage points
same,Milk linolenate increase vs. 0 mg supplementation,Holstein cows [4]; [9],37%
same,Rumen liquid turnover rate increase,"Holstein cows [4]; 70 mg monensin, P<0.1, linseed oil diet",5%
same,Bypass linolenic acid,"Holstein cows [4]; 70 mg monensin, linseed oil diet",about 30%
same,Increase of linolenic acid in duodenal contents,"Holstein cows [4]; 10 and 40 mg monensin, P<0.05, linseed oil diet",20 percentage points
same,Estimated rumen bypass rate for linolenic acid,"Holstein cows [4]; 10 and 40 mg monensin, linseed oil diet (0 mg: 8%)",28%
same,Rumen rate of passage increase,"Holstein cows [4]; 40 and 70 mg monensin, linseed oil diet",6%
same,Rumen liquid turnover rate,"Holstein cows [4]; between 0, 10 and 40 mg monensin, linseed oil diet",not different
same,Milk protein percentages,"Holstein cows [4]; diets with different concentrations of monensin, linseed oil diet",not different
same,Milk fat percentage,"Holstein cows [4]; lower inclusion rates of monensin, linseed oil diet",only a tendency for a reduction
